Data: patent US20180311225A1, “EXTERNAL PREPARATION” (TEIKA PHARMACEUTICAL CO., LTD., priority 2015, published 2018)

Tested on: allergic reaction at the conjunctiva sites (vascular hyperpermeability) of Wistar rats
Experiment: Rat passive allergic conjunctivitis model, Evans blue dye leakage (absorbance at 620 nm)
Type: in vivo
Conditions: Example 2, FIG. 1, presence or absence of the component
From the text: As a trigger solution was used a solution prepared by mixing equal volumes of 1% (w/v) ovalbumin (Grade V; manufactured by Sigma-Aldrich Co. LLC)/physiological saline (manufactured by Otsuka Pharmaceutical Co., Ltd.) and 1% (w/v) Evans blue (manufactured by Wako Pure Chemical Industries, Ltd.)/physiological saline.
As an extraction solution was used an aqueous solution of acetone (manufactured by Wako Pure Chemical Industries, Ltd.)/0.5% (w/v) sodium sulfate (manufactured by Wako Pure Chemical Industries. Ltd.) (7:3).
After 48 h, 1 mL of the trigger solution was intravenously administered to trigger an allergic reaction at the conjunctiva sites. Then, each test solution was dropped onto the eyes at 15 min before and immediately before triggering the allergic reaction (the total of 2 times). […] The overnight extraction solution was centrifuged to recover a supernatant. Absorbance of the supernatant was measured at 620 nm.
Vascular hyperpermeability caused by an allergic reaction results in leakage of Evans blue. Thus, the less the amount of leakage of the dye, the more the vascular hyperpermeability is suppressed. This should be an indicator of the antiallergic effects. The amount of leakage of dye per tissue unit (gig/g) was calculated by using a predetermined standard curve. A dye amount ratio was calculated using the following equation to give an indicator of the suppression effects. […]

SMILES | Contribution of the component to the antiallergic action when combined with ketotifen fumarate (group 6 compared with group 7, 8 or 10)
O=C([O-])O.[Na+] [sodium bicarbonate] | can contribute to an antiallergic action
[Cl-].[Na+] [sodium chloride] | can contribute to an antiallergic action
